# Assay results reported in paper PMC11413854, “Reversible Control of Native GluN2B-Containing NMDA Receptors with Visible Light” (ACS Chemical Neuroscience, 2024).
# Like-named read-outs stand apart in the source and are kept apart here.
# Molecular target: T1, GluN1/GluN2B NMDA receptors (UniProt P35439+Q01097)
# T1 construct: expressed in transfected cells; host or cells: Xenopus laevis oocytes (nuclear cDNA injection)
# Assay: TEVC electrophysiology on Xenopus oocytes expressing wt GluN1/GluN2B NMDARs
# Format: cell-based, rat GluN1, mouse GluN2B
# Details: for Relative current for theoretical DRC 9% trans / Relative current for theoretical DRC 18% trans / remaining activity at 0.03 µM / remaining activity at 0.1 µM / remaining activity at 0.3 µM / remaining activity at 2 µM: GluN1/GluN2B wt; for Relative current for theoretical DRC 9% trans: theoretical for 350 nm PSS; for Relative current for theoretical DRC 18% trans: theoretical for 365 nm PSS; for remaining activity at 0.03 µM / remaining activity at 0.1 µM / remaining activity at 0.3 µM / remaining activity at 2 µM: Sup. Fig. 3F, read-out: Relative current (IOpto/I0); for remaining activity at 0.03 µM: [OptoNAM-3] 0.03 µM; for remaining activity at 0.1 µM: [OptoNAM-3] 0.1 µM
# From the text: The activity of OptoNAM-3 was functionally monitored by electrophysiology on Xenopus oocytes (see Methods). To assess the light-dependent effect, we tested the activities of the dark PSS (mostly trans) and the UV PSS (mostly cis, see above) separately. For each concentration, we prepared a solution divided into two samples: one in which the compound was kept in the dark for the duration of the experiment (dark PSS state); and the other that was preilluminated with either 350 or 365 nm light (350 or 365 nm PSS) and then kept away from the light for the duration of the experiment in order to avoid photoisomerization of the compounds by ambient light (see Methods). […] We generated dose–response curves of OptoNAM-3 dark and UV PSS on wild-type (wt) GluN1/GluN2B NMDA receptors (Figure 3A) in the presence of saturating concentrations of agonists (100 μM glutamate and glycine).
# We used cDNA coding for rat GluN1–1a (named GluN1 herein) (GenBank: U08261.1), rat GluN2A (GenBank: D13211.1), mouse GluN2B (GenBank: D10651.2), rat GluA1 flop (GenBank: M36418.2), and rat Myc-GluA2(Q)-flip (GenBank: AF164344.1) cloned into pcDNA3-based expression plasmids. GluK2 (GenBank: Z11548.1) corresponds to the fully RNA-edited version.[80] The GluN2B-ΔNTD construct is from ref[45] and GluN2B–N615K is from ref[81]. Single mutants GluN2B-Q110G and GluN1-L135H were from ref[19]. The GluA2 cDNA contains a Myc tag ([…]) fused between the signal peptide and the N-terminus sequences, and the GluA2 subunit is […] for its Q/R/N site (GluA2(Q)) to allow permeation of homomeric GluA2 receptors.[2] cDNAs coding for rat GluN2C (GenBank: M91563.1) and GluN2D subunits (GenBank: L31611.1) were in prK5 plasmids.
# Oocytes from Xenopus laevis were used for heterologous expression of recombinant NMDA receptors studied using a two-electrode voltage clamp (TEVC). Female Xenopus laevis were housed and ovary bags harvested according to the European Union guidelines (husbandry authorizations #C75–05–31 and #D75–05–31; project authorizations #05137.02; and Apafis #28867–2020121814485893). Fragments of ovary bags were also purchased from the “Centre de Ressources Biologiques Xenopes” (now TEFOR, Paris Saclay, France) and from the European Xenopus Resource Center (EXRC, Portsmouth, UK). Xenopus laevis oocytes were harvested and prepared as previously described in ref[82].
# Expression of recombinant NMDA receptors was obtained by oocyte nuclear coinjection of 37 nL of a mixture of cDNAs (at 30 ng/μL) coding for GluN1–1a and various GluN2 subunits (ratio 1:1). The protocol in ref[43] was followed for the expression of GluN1/GluN2A/GluN2B triheteromers. The oocytes were transferred in 96-well plates filled with Barth solution (in mM: 88 NaCl, 1 KCl, 0.33 Ca(NO3)2, 0.41 CaCl2, 0.82 MgSO4, 2.4 NaHCO3, and 7.5 HEPES, pH adjusted to 7.3 with NaOH), supplemented with gentamicin ([…]) and 50 μM APV, a selective NMDA receptor antagonist. Plates were then stored at 18 °C for 24 h for GluN1/GluN2A expression and for 48––72 h for the expression of GluN1/Glu2B, GluN1/GluN2A/GluN2B, and mutants.
# TEVC recordings were performed 1–3 days following injection. TEVC recordings were performed using an Oocyte Clamp amplifier OC-725 (Warner Instruments) and computer-controlled via a 1440A Digidata (Molecular Devices). Currents were sampled at 100 Hz and low-pass-filtered at 20 Hz using an 8-pole Bessel filter (900 Series, Frequency Devices Inc.).
# [1] = OptoNAM-3 dark PSS (trans) + 0.2 µM ifenprodil
# [2] = OptoNAM-3 dark PSS (trans), no ifenprodil
# [3] = preilluminated in solution, Xenopus oocytes
# T1 sequence (Q01097 27-1482, other chains not shown): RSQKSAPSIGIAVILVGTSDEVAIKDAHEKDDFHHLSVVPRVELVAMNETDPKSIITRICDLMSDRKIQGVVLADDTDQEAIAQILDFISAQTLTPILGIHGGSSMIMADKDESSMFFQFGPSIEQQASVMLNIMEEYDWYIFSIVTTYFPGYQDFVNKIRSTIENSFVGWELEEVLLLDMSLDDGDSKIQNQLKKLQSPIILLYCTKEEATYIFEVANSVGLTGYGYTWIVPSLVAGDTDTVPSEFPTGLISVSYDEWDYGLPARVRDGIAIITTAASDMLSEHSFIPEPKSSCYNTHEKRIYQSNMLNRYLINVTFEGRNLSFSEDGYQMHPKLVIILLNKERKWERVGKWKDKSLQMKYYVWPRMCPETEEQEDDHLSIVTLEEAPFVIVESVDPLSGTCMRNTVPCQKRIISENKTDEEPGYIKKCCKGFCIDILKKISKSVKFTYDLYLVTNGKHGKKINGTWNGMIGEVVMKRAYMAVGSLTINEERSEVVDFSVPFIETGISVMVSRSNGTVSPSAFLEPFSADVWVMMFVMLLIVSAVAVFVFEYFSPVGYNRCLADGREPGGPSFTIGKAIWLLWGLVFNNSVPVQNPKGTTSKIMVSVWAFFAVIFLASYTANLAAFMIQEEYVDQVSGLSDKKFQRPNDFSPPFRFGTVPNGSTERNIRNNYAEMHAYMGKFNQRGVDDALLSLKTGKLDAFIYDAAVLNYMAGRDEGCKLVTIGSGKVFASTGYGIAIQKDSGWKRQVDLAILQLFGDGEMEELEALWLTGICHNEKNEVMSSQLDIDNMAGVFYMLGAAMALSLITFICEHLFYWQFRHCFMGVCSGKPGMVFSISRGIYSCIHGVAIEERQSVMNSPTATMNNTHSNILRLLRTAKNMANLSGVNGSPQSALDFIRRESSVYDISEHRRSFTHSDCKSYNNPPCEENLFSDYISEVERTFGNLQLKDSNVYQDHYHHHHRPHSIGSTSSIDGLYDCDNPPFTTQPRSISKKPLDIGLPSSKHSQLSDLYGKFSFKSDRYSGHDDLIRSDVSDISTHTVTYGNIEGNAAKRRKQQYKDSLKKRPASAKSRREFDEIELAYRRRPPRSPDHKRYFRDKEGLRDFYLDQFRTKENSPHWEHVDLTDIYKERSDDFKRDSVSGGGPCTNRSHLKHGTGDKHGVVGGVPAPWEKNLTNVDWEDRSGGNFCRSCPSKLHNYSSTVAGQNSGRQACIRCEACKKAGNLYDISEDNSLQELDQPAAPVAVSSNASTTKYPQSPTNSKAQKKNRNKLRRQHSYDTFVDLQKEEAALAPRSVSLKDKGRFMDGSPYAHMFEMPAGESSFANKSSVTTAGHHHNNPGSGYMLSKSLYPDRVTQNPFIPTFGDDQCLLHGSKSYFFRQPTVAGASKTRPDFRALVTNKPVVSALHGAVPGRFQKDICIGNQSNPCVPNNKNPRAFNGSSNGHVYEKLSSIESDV
compound,measurement,setting,value
"c1ccc(/N=N/c2ccc(CCNc3ccncc3)cc2)cc1 [OptoNAM-3, (E)-N-(4-(Phenyldiazenyl)phenethyl)pyridin-4-amine]",Relative current for theoretical DRC 9% trans,[OptoNAM-3] 1 µM,0.775
same,Relative current for theoretical DRC 9% trans,[OptoNAM-3] 2 µM,0.656
same,Relative current for theoretical DRC 9% trans,[OptoNAM-3] 3 µM,0.570
same,Relative current for theoretical DRC 9% trans,[OptoNAM-3] 5 µM,0.452
same,Relative current for theoretical DRC 18% trans,[OptoNAM-3] 0.025 µM,0.980
same,Relative current for theoretical DRC 18% trans,[OptoNAM-3] 0.05 µM,0.965
same,Relative current for theoretical DRC 18% trans,[OptoNAM-3] 0.125 µM,0.924
same,Relative current for theoretical DRC 18% trans,[OptoNAM-3] 0.22 µM,0.880
same,Relative current for theoretical DRC 18% trans,[OptoNAM-3] 0.3 µM,0.848
same,Relative current for theoretical DRC 18% trans,[OptoNAM-3] 0.5 µM,0.775
same,Relative current for theoretical DRC 18% trans,[OptoNAM-3] 1 µM,0.656
same,Relative current for theoretical DRC 18% trans,[OptoNAM-3] 2 µM,0.500
same,Relative current for theoretical DRC 18% trans,[OptoNAM-3] 3 µM,0.416
same,Relative current for theoretical DRC 18% trans,[OptoNAM-3] 5 µM,0.307
same,Relative current for theoretical DRC 18% trans,[OptoNAM-3] 30 µM,0.073
same,remaining activity at 0.03 µM,[1],93.3%
same,remaining activity at 0.1 µM,[1],89%
same,remaining activity at 0.3 µM,"OptoNAM-3 dark PSS (trans) + 0.2 µM ifenprodil, [OptoNAM-3] 0.3 µM",77.3%
same,remaining activity at 2 µM,"OptoNAM-3 dark PSS (trans) + 0.2 µM ifenprodil, [OptoNAM-3] 2 µM",32.6%
same,remaining activity at 0.03 µM,[2],95.1%
same,remaining activity at 0.1 µM,[2],84.9%
same,remaining activity at 0.3 µM,"OptoNAM-3 dark PSS (trans), no ifenprodil, [OptoNAM-3] 0.3 µM",63.5%
same,remaining activity at 2 µM,"OptoNAM-3 dark PSS (trans), no ifenprodil, [OptoNAM-3] 2 µM",14.7%
same,Mean Relative current (IOpto/I0),"[OptoNAM-3] 0.025 µM, 365 nm PSS",0.933
same,Mean Relative current (IOpto/I0),"[OptoNAM-3] 0.025 µM, dark PSS (trans)",0.887
same,Mean Relative current (IOpto/I0),"[OptoNAM-3] 0.050 µM, 365 nm PSS",0.910
same,Mean Relative current (IOpto/I0),"[OptoNAM-3] 0.050 µM, dark PSS (trans)",0.827
same,Mean Relative current (IOpto/I0),"[OptoNAM-3] 0.125 µM, 350 nm PSS",0.907
same,Mean Relative current (IOpto/I0),"[OptoNAM-3] 0.125 µM, 365 nm PSS",0.912
same,Mean Relative current (IOpto/I0),"[OptoNAM-3] 0.125 µM, dark PSS (trans)",0.758
same,Mean Relative current (IOpto/I0),"[OptoNAM-3] 0.220 µM, 365 nm PSS",0.880
same,Mean Relative current (IOpto/I0),"[OptoNAM-3] 0.220 µM, dark PSS (trans)",0.592
same,Mean Relative current (IOpto/I0),"[OptoNAM-3] 0.300 µM, 350 nm PSS",0.918
same,Mean Relative current (IOpto/I0),"[OptoNAM-3] 0.300 µM, 365 nm PSS",0.841
same,Mean Relative current (IOpto/I0),"[OptoNAM-3] 0.300 µM, dark PSS (trans)",0.581
same,Mean Relative current (IOpto/I0),"[OptoNAM-3] 0.470 µM, 350 nm PSS",0.900
same,Mean Relative current (IOpto/I0),"[OptoNAM-3] 0.500 µM, 365 nm PSS",0.666
same,Mean Relative current (IOpto/I0),"[OptoNAM-3] 1.000 µM, 350 nm PSS",0.860
same,Mean Relative current (IOpto/I0),"[OptoNAM-3] 1.000 µM, 365 nm PSS",0.644
same,Mean Relative current (IOpto/I0),"[OptoNAM-3] 1.000 µM, dark PSS (trans)",0.307
same,Mean Relative current (IOpto/I0),"[OptoNAM-3] 2.000 µM, 350 nm PSS",0.656
same,Mean Relative current (IOpto/I0),"[OptoNAM-3] 2.000 µM, 365 nm PSS",0.433
same,Mean Relative current (IOpto/I0),"[OptoNAM-3] 2.000 µM, dark PSS (trans)",0.141
same,Mean Relative current (IOpto/I0),"[OptoNAM-3] 3.000 µM, 350 nm PSS",0.613
same,Mean Relative current (IOpto/I0),"[OptoNAM-3] 3.000 µM, 365 nm PSS",0.375
same,Mean Relative current (IOpto/I0),"[OptoNAM-3] 3.000 µM, dark PSS (trans)",0.098
same,Mean Relative current (IOpto/I0),"[OptoNAM-3] 5.000 µM, 350 nm PSS",0.446
same,Mean Relative current (IOpto/I0),"[OptoNAM-3] 5.000 µM, 365 nm PSS",0.267
same,Mean Relative current (IOpto/I0),"[OptoNAM-3] 5.000 µM, dark PSS (trans)",0.092
same,Mean Relative current (IOpto/I0),"[OptoNAM-3] 30.000 µM, 365 nm PSS",0.034
same,Mean Relative current (IOpto/I0),"[OptoNAM-3] 30.000 µM, dark PSS (trans)",0.00423
same,IC50,"control curve of the ifenprodil competition experiment, read-out: IC50 in the dark in absence of ifenprodil",460 ± 60 nM
same,increase of IC50 by 0.2 µM ifenprodil,dark,~ 2 fold
same,IC50,"dark PSS (trans), 100 µM glutamate + glycine, Xenopus oocytes, read-out: IC50 on GluN1/GluN2B receptors in the dark",380 ± 30 nM
same,IC50,"dark PSS (trans), Xenopus oocytes, read-out: IC50 on GluN1/GluN2B receptors in the dark",380 nM
same,UV/dark IC50 ratio (350 nm PSS vs dark),[3],11.5 fold
same,UV/dark IC50 ratio (365 nm PSS vs dark),[3],4.5 fold
same,IC50,"range over HEK cells and Xenopus oocytes, read-out: IC50 in the dark (trans isomer)",150 to 380 nM
same,activity of the cis isomer on GluN1/GluN2B NMDARs,theoretical dose-response curve of a pure cis population calculated from 365 and 350 nm PSS,no inhibitory activity
